Data: PMC4523931, “Modulation of Aβ42 in vivo by γ-secretase modulator in primates and humans” (Alzheimer's Research & Therapy, 2015)

Columns and labels:
[1] = biological target: T1, γ-secretase (Macaca fascicularis, UniProt Q8HXW5); assay: Aβ levels in CSF and plasma of conscious cynomolgus monkeys after a single dose; assay type: in vivo, cynomolgus monkeys (Macaca fascicularis)
T1 construct: γ-secretase complex can be modulated in primates; from tissue; host or cells: living cynomolgus monkeys; Aβ read out in CSF and plasma
Experimental: The effects of drugs on CSF and plasma Aβ ratios in monkeys and plasma Aβ ratios in humans were analyzed by a two-way analysis of variance with a post hoc Bonferroni posttest (GraphPad Prism, La Jolla, CA, USA).
Aβ42, Aβ38 and total Aβ levels in CSF samples were measured. During the observation period, there was variation in Aβ levels in untreated animals (Fig. 2a–c) without a clear diurnal pattern, consistent with the reports from catheter studies in humans. Animals were then treated with drugs in subsequent weeks sequentially. Between each treatment, all animals were rested for 1 week to allow drug washout. […] In light of the CSF results, the effects of GSM-1 were mirrored in plasma. […] This was evident as early as 2 h following drug administration and plateaued starting at 4 h. GSM-1 reduced the ratio of Aβ42/Aβ40 up to 40 % at 6 h after dosing.
Cerebrospinal fluid (CSF) and plasma samples were collected at indicated time points and amyloid beta-peptide (Aβ) levels were measured. Levels of total Aβ (a), Aβ42 (b) and Aβ38 (c) were compared in CSF samples. […] The levels and ratios were normalized to baseline (time 0 or before drug dosing) and shown as percentages of baseline. Seven monkeys were used in the no-treatment group. […] Results are presented as mean ± SEM; *p < 0.05, **p < 0.001. GSM gamma-secretase modulator

[2] = tested on: γ-secretase; parameters: method as in PMID 17962197; settings: APP transgenic mice, cited from earlier work
[3] = tested on: γ-secretase; assay: GSM activity in vitro: Aβ42 and total Aβ ELISA of conditioned media of CHO cells expressing APP-WT or APP-V717F; assay type: cell-based, Chinese hamster; settings: for ED50 (in vitro GSM activity): Fig. 1
Source text: Conditioned media were collected and Aβ42 and total Aβ levels were quantified by ELISA analyses. […] All experiments were repeated at least twice. Results are presented as mean ± range. GSM gamma-secretase modulator

[4] = biological target: T1, γ-secretase; assay: Aβ levels in CSF and plasma of conscious cynomolgus monkeys after a single dose; assay type: in vivo, cynomolgus monkeys (Macaca fascicularis); settings: monkey CSF, 30 mg/kg oral
[5] = parameters: method as in PMID 12897211; settings: mice, 50 mg/kg daily for 3 days, 2 h after the last dose; cited from earlier work
[6] = Plasma drug concentration in mice treated with ibuprofen for 3 days (literature); assay type: in vivo; settings: Tg2576 (APP transgenic line), mouse, 50 mg/kg daily for 3 days, from 43 μM and ~5.5 % unbound, read-out: estimated unbound concentration in plasma
[7] = tested on: γ-secretase; parameters: method as in PMID 11700559, PMID 12897211; settings: Tg2576 mice, 50 mg/kg for 3 days; cited from earlier work
[8] = in vivo; settings: female, cynomolgus monkey, po, 100 mg/kg
[9] = clinical; settings: human
[10] = monkey, 100 mg/kg oral, first sampled time point, all but one animal
[11] = Adverse events in the human study; settings: healthy humans, 800 mg IV single dose or placebo
[12] = mild to moderate AD, 400 mg twice daily, 1 year; cited from earlier work
[13] = parameters: method as in PMID 17650315, PMID 20009055; settings: late-phase human clinical trial; cited from earlier work

SMILES: CC(C)CC[C@H](c1ccc(Cl)cc1)N1CC[C@@H](CC(=O)O)C[C@H]1c1ccc(C(F)(F)F)cc1 [GSM-1]
- time of maximum reduction in CSF ([1]; monkey CSF, 30 mg/kg oral): 8 to 12 h
- effect on CSF total Aβ levels ([1]; monkey CSF, 30 mg/kg oral single dose): did not change
- maximal increase in CSF Aβ38 levels ([1]; monkey CSF, 30 mg/kg oral single dose, 8 h postdosing): ~ 90%
- maximal reduction in CSF Aβ42 levels ([1]; monkey CSF, 30 mg/kg oral single dose, 12 h postdosing): ~ 32%
- maximal increase of the ratio of Aβ38 to total Aβ in CSF ([1]; monkey CSF, 30 mg/kg oral, after 8 h, p < 0.05): 70%
- ratio of Aβ42 to total Aβ in CSF, relative to baseline ([1]; monkey CSF, single dose 30 mg/kg, baseline to postdosing): 65%
- reduction of the ratio of Aβ42/Aβ40 in plasma ([1]; monkey plasma, 30 mg/kg oral, 6 h after dosing): up to 40%
- time at which the decrease of plasma Aβ42/Aβ40 ratio was first evident ([1]; monkey plasma, 30 mg/kg oral, plateaued starting at 4 h): 2 h
- ratio of Aβ42 to Aβ40 in plasma, relative to baseline ([1]; monkey plasma, single dose 30 mg/kg, baseline to postdosing): 60%
- effect on ratio of Aβ42/Aβ40 in plasma ([1]; monkey plasma, single dose, Fig. 2f): markedly decreased
- lowering of brain Aβ42 ([2]; single dose 3 mg/kg): 25%
- reduction of brain Aβ42 ([2]; single dose 30 mg/kg): 70%
- effect on Aβ38 levels ([2]; single dose): concomitantly increased
- effect on ratio of Aβ42 to total Aβ ([3]; CHO APP-WT or APP-V717F, 24 h, dose-dependent, p < 0.001): significantly reduced
- concentration giving 50 % reduction of the ratio of Aβ42 to total Aβ ([3]; CHO cells expressing APP-WT or APP-V717F, 24 h incubation, ELISA): 0.2 µM
- ED50 (in vitro GSM activity) [3]: approximately 200 nM
- CSF Aβ38 level (mean ± SD) ([4]; 8 h postdosing, baseline 1033.3 ± 300.0): 1954.8 ± 698.6 pg/mL
- CSF Aβ42 level (mean ± SD) ([4]; 12 h postdosing, baseline 267.1 ± 60.0): 183.5 ± 96.1 pg/mL

SMILES: CC(C)Cc1ccc(C(C)C(=O)O)cc1 (centres unmarked) [ibuprofen]
- average plasma drug concentration [5]: 43 µM
- concentration at 3 days [6]: ~2370 nM
- effect on Aβ40 levels (reduced or not) [7]: not
- effect on Aβ42 levels [7]: significantly reduced
- ED50 (in vitro GSM activity) [3]: 250 to 500 µM
- AUC(0-t) ([8]; CSF): 36.4 ± 11.8 µM·h
- AUC(0-t) ([8]; plasma): 3740 ± 924 µM·h
- AUC(0-t) ([9]; both, in vivo, iv, 800 mg): 831 ± 156 µM·h
- time of return of plasma levels to baseline ([9]; 800 mg IV): ≤ 8 h
- time of highest plasma levels ([9]; 800 mg IV, first time sampled): 1 h
- time of highest concentrations in plasma and CSF [10]: 2 h
- adverse events during the study period [11]: no adverse events were observed
- clinical benefit [12]: no benefit

SMILES: C[C@@H](C(=O)O)c1ccc(-c2ccccc2)c(F)c1 [tarenflurbil]
- clinical efficacy [13]: not to be effective
